Values of other authors in patent publication US5767071A, “Sevenmer cyclic peptide inhibitors of diseases involving αv β3” (IXSYS Incorporated, priority 1995, dated 1998).

Experiments:
[1] = test system: chicken embryo tumor model
integrin αv β3 = integrin αv β3 (Homo sapiens, UniProt P05106+P06756); conditions: binding and cell adhesion assays
Chain of integrin αv β3 (P06756 31-889 limits assumed): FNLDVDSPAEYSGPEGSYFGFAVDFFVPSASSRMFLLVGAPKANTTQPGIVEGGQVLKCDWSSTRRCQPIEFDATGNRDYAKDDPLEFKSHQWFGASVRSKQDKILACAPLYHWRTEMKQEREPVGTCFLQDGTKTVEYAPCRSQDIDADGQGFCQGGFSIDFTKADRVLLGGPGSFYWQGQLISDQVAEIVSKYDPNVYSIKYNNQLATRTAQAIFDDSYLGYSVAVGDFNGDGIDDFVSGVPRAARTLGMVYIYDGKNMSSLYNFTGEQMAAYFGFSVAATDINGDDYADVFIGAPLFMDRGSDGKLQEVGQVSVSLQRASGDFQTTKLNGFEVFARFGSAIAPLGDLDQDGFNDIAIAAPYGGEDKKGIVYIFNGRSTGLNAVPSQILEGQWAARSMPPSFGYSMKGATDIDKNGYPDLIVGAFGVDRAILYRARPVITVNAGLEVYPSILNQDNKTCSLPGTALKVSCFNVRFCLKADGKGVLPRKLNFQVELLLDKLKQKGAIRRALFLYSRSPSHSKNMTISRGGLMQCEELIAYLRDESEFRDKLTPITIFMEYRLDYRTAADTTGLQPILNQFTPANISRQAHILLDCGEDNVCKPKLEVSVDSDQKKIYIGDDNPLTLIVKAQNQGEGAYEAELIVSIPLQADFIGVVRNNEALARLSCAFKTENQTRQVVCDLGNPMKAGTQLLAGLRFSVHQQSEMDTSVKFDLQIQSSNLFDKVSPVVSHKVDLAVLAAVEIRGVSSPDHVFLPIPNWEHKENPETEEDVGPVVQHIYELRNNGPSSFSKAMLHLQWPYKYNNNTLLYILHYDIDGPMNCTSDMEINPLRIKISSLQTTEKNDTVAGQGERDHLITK
Chain of integrin αv β3 (P06756 891-1048 limits assumed): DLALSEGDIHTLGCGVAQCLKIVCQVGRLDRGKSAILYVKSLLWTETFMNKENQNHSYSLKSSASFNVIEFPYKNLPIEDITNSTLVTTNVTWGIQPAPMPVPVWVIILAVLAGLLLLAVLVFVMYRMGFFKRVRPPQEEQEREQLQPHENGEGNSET
Chain of integrin αv β3 (P05106 27-788): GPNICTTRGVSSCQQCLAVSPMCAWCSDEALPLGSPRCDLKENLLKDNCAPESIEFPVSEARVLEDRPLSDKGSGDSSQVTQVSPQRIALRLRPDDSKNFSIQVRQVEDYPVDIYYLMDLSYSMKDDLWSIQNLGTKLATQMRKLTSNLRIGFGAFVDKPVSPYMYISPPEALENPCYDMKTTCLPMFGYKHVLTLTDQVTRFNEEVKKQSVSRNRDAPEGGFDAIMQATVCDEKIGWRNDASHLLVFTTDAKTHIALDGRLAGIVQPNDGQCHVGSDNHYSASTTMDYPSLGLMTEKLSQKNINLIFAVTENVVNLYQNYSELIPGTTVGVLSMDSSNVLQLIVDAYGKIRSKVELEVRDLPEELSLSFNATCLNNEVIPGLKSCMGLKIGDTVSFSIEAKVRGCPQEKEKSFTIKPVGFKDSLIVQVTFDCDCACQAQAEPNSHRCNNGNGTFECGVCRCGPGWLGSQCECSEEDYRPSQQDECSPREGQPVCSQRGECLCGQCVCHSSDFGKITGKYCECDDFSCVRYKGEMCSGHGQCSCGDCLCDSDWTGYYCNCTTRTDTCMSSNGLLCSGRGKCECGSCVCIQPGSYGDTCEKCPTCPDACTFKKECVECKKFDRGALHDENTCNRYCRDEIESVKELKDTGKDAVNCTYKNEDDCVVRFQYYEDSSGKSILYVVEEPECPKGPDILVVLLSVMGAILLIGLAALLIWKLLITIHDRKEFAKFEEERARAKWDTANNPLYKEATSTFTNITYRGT

## CC(C)[C@@H]1NC(=O)[C@@H](Cc2ccccc2)NC(=O)[C@H](CC(=O)O)NC(=O)CNC(=O)[C@H](CCCN=C(N)N)NC1=O [cyclo-RGDfv]
[1]
  inhibition of angiogenesis / neovascularization: inhibit the neovascularization process

## ACPSRLDSPCG [RLD peptide from a literature phage library (Koivunen et al.)]
Integrin αv β3
  activity compared with an RGD peptide: 100-1000 fold lower
  selectivity for the integrin αv β3: only partially selective

## Gly-Arg-Gly-Asp-Ser (GRGDS)
angiogenesis
  inhibition of angiogenesis in vitro: inhibits angiogenesis in vitro
